Experimental data: patent US12029751B2, “Therapeutic agent for nervous system disease” (OSAKA UNIVERSITY, priority 2017, dated 2024)

Legend:
[1] = tested on: Mouse macrophage cell line J774A.1; test: Immunohistological evaluation of iNOS-positive (M1) and Arg1-positive (M2) macrophages; type: cell-based; details: for percentage of M2 macrophages (percentage of Arg1-positive cells): 72 hours; for percentage of M1 macrophages (percentage of iNOS-positive cells): 24 hours
Method: Mouse macrophage cell line J774A.1 (JCRB9108) was purchased from JCRB Cell Bank (Laboratory of Cell Cultures), Osaka, Japan. Cells were cultured in DMEM containing 10% FBS and 1% penicillin/streptomycin.
The J774A.1 cells (Example 5-1) were seeded on a dish having a diameter of 6 cm. After 4 days, cells were fixed with 4% PFA for 20 minutes. Blocking was performed for 30 minutes, and the cells were allowed to react with primary antibodies at 4° C. overnight. The cells were further allowed to react with a secondary antibody at room temperature for 1 hour so that the nuclei were labeled with DAPI. To detect the M1 marker iNOS, LPS (100 ng/ml) and methylcobalamin were added at 24 hours before fixing the cells. To detect the M2 marker Arg1, IL-4 (20 ng/ml) and methylcobalamin were added at 72 hours before fixing the cells.
The primary antibodies used were a rabbit anti-iNOS monoclonal antibody (Abeam) and a rabbit anti-Arg1 polyclonal antibody (Santa Cruz). The secondary antibody used was an Alexa 488-labeled goat anti-rabbit IgG antibody (Life Technologies) or an Alexa 568-labeled goat anti-rabbit IgG antibody (Life Technologies).

[2] = tested on: rat spinal cord injury model; test: Immunofluorescent staining of macrophages (M1, M2, M1/M2 ratio) in rat spinal cord injury model; type: in vivo; set-up: Number of macrophages: unit: /mm2
Method: Six-week-old female Wistar rats were used. The rats were purchased from Charles River Laboratories Japan, Inc. (Yokohama, Japan). Anesthesia was performed as follows. A 1:10 dilution of a mixture of three anesthetic agents in physiological saline was administered by intraperitoneal injection. One dose consisted of 0.2 mg/kg of midazolam, 0.015 mg/kg of medetomidine, and 0.25 mg/kg of butorphanol. The rat was placed in a prone position on an operating table, and a dorsal midline incision was made. The T10 vertebral arch was removed to expose the posterior face of the spinal cord, and the left spinal cord was hemisected using a sharp-pointed surgical scalpel (spitz mess). The skin was sutured using a 4-0 nylon thread and the surgery was completed. A comparison was made among three groups: a methylcobalamin treatment group, an untreated group, and a sham group. Immediately after the surgical operation, an osmotic minipump filled with methylcobalamin (1 mg/kg/day) or physiological saline was placed for the methylcobalamin treatment group and the untreated group, respectively, and left in the left dorsal subcutaneous space. The sham group underwent only resection of the Th10 vertebral arch.
The rat spinal cord injury model of Example 9-1 was used. At 7, 14, and 28 days after the surgery, the rats were anesthetized with an anesthetic agent, and perfusion fixation was performed with 4% PFA. Then, the spinal cord including the injury site was collected and fixed with 20% sucrose for 24 hours, and the fixed spinal cord was freeze-embedded. The embedded tissue was sliced into a 5-μm-thick slice in a nerve short-axis direction and placed on a glass slide. The slice was dried for 1 hour and fixed with 100% methanol for 30 minutes. The fixed slices were blocked, and cells were allowed to react with primary antibodies at 4° C. overnight. The cells were further allowed to react with a secondary antibody at room temperature for 1 hour so that the nuclei were labeled with DAPI.
Using transverse spinal cord sections on the affected side at 2 and 1 mm on the head side and at 1 and 2 mm on the tail side from the injury site, the number of macrophages, the number of M1 (pro-inflammatory type) macrophages, the proportion of M1 macrophages, the number of M2 (anti-inflammatory type) macrophages, and the proportion of M2 macrophage per unit area, as well as the M1/M2 ratio were measured and calculated.
The primary antibodies used were an anti-CD68 antibody, an anti-iNOS antibody, and an anti-Arg1 antibody. The secondary antibodies used were an Alexa 488-labeled goat anti-rabbit IgG antibody and an Alexa 568-labeled goat anti-mouse IgG antibody.

[3] = 7, 14 and 28 days after the surgery, 1 mg/kg/day
[4] = Table 16 (FIG. 16; day not given), 1 mm on the head side
[5] = Table 16 (FIG. 16; day not given), 1 mm on the tail side
[6] = Table 16 (FIG. 16; day not given), 2 mm on the head side
[7] = Table 16 (FIG. 16; day not given), 2 mm on the tail side
[8] = Table 17 (FIG. 17; day not given), 1 mm on the head side
[9] = Table 17 (FIG. 17; day not given), 1 mm on the tail side
[10] = Table 17 (FIG. 17; day not given), 2 mm on the head side
[11] = Table 17 (FIG. 17; day not given), 2 mm on the tail side
[12] = Table 18 (FIG. 18; day not given), 1 mm on the head side
[13] = Table 18 (FIG. 18; day not given), 1 mm on the tail side
[14] = Table 18 (FIG. 18; day not given), 2 mm on the head side
[15] = Table 18 (FIG. 18; day not given), 2 mm on the tail side

## C/C1=C2/[N-][C@H]([C@H](CC(N)=O)[C@@]2(C)CCC(=O)NC[C@@H](C)OP(=O)([O-])O[C@H]2[C@@H](O)[C@@H](n3cnc4cc(C)c(C)cc43)O[C@@H]2CO)[C@]2(C)N=C(/C(C)=C3N=C(/C=C4N=C1[C@@H](CCC(N)=O)C\4(C)C)[C@@H](CCC(N)=O)[C@]\3(C)CC(N)=O)[C@@H](CCC(N)=O)[C@]2(C)CC(N)=O.[CH3-].[Co+3] [MeCbl, methylcobalamin]
[1]; IL-4 20 ng/ml + MeCbl 1 nM
  percentage of M2 macrophages (percentage of Arg1-positive cells): 10.90%
[1]; IL-4 20 ng/ml + MeCbl 10 nM
  percentage of M2 macrophages (percentage of Arg1-positive cells): 18.57%
[1]; IL-4 20 ng/ml + MeCbl 100 nM
  percentage of M2 macrophages (percentage of Arg1-positive cells): 18.95%
[1]; IL-4 20 ng/ml + MeCbl 1 μM
  percentage of M2 macrophages (percentage of Arg1-positive cells): 19.32%
[1]; IL-4 20 ng/ml + MeCbl 10 μM
  percentage of M2 macrophages (percentage of Arg1-positive cells): 15.24%
[1]; IL-4 20 ng/ml + MeCbl 100 μM
  percentage of M2 macrophages (percentage of Arg1-positive cells): 10.61%
[1]; IL-4 20 ng/ml + MeCbl 1 mM
  percentage of M2 macrophages (percentage of Arg1-positive cells): 9.49%
[1]; IL-4 + 10 nM to 1 μM methylcobalamin
  proportion of cells positive for the M2 marker Arg1 as compared to IL-4 alone: significantly increased
[1]; LPS 100 ng/ml + MeCbl 1 nM
  percentage of M1 macrophages (percentage of iNOS-positive cells): 16.64%
[1]; LPS 100 ng/ml + MeCbl 10 nM
  percentage of M1 macrophages (percentage of iNOS-positive cells): 9.57%
[1]; LPS 100 ng/ml + MeCbl 100 nM
  percentage of M1 macrophages (percentage of iNOS-positive cells): 7.26%
[1]; LPS 100 ng/ml + MeCbl 1 μM
  percentage of M1 macrophages (percentage of iNOS-positive cells): 3.42%
[1]; LPS 100 ng/ml + MeCbl 10 μM
  percentage of M1 macrophages (percentage of iNOS-positive cells): 11.45%
[1]; LPS 100 ng/ml + MeCbl 100 μM
  percentage of M1 macrophages (percentage of iNOS-positive cells): 10.34%
[1]; LPS 100 ng/ml + MeCbl 1 mM
  percentage of M1 macrophages (percentage of iNOS-positive cells): 17.57%
[1]; LPS + 10 nM to 100 μM methylcobalamin
  proportion of cells positive for the M1 marker iNOS as compared with LPS alone: significantly decreased
[1]; immunofluorescent staining
  methylcobalamin concentration at peak of switch from M1 to M2: around 100 nM
[2]; [3]
  M1 macrophages as compared with the untreated group: trends for decreased M1 macrophages
  M2 macrophages as compared with the untreated group: increased M2 macrophages
  number of accumulated macrophages per unit area as compared with the untreated group: trends for a smaller number
[2]; 7 days after a surgery, 1 mm on the head side
  M1/M2: 0.5722
[2]; 7 days after a surgery, 1 mm on the tail side
  M1/M2: 0.602
[2]; 7 days after a surgery, 2 mm on the head side
  M1/M2: 0.8156
[2]; 7 days after a surgery, 2 mm on the tail side
  M1/M2: 0.9337
[2]; 14 days after a surgery, 1 mm on the head side
  M1/M2: 0.993
[2]; 14 days after a surgery, 1 mm on the tail side
  M1/M2: 0.9409
[2]; 14 days after a surgery, 2 mm on the head side
  M1/M2: 0.9106
[2]; 14 days after a surgery, 2 mm on the tail side
  M1/M2: 0.8605
[2]; 28 days after a surgery, 1 mm on the head side
  M1/M2: 2.457
[2]; 28 days after a surgery, 1 mm on the tail side
  M1/M2: 4.3
[2]; 28 days after a surgery, 2 mm on the head side
  M1/M2: 3.355
[2]; 28 days after a surgery, 2 mm on the tail side
  M1/M2: 3.545
[2]; [4]
  M1 macropage ratio: 0.131
  Number of M1 macrophages/mm2: 37.00 /mm2
  Number of M2 macrophages/mm2: 63.85 /mm2
  Number of macrophages: 268.62
[2]; [5]
  M1 macropage ratio: 0.129
  Number of M1 macrophages/mm2: 43.07 /mm2
  Number of M2 macrophages/mm2: 76.13 /mm2
  Number of macrophages: 348.57
[2]; [6]
  M1 macropage ratio: 0.143
  Number of M1 macrophages/mm2: 20.43 /mm2
  Number of M2 macrophages/mm2: 25.87 /mm2
  Number of macrophages: 143.68
[2]; [7]
  M1 macropage ratio: 0.170
  Number of M1 macrophages/mm2: 27.02 /mm2
  Number of M2 macrophages/mm2: 28.76 /mm2
  Number of macrophages: 155.09
[2]; [8]
  M1 macrophage ratio: 0.122
  M2 macrophage ratio: 0.130
  Number of M1 macropages/mm2: 48.35 /mm2
  Number of M2 macrophages/mm2: 47.90 /mm2
  Number of macrophages: 362.17
[2]; [9]
  M1 macrophage ratio: 0.102
  M2 macrophage ratio: 0.112
  Number of M1 macropages/mm2: 43.74 /mm2
  Number of M2 macrophages/mm2: 43.12 /mm2
  Number of macrophages: 395.70
[2]; [10]
  M1 macrophage ratio: 0.103
  M2 macrophage ratio: 0.146
  Number of M1 macropages/mm2: 28.35 /mm2
  Number of M2 macrophages/mm2: 36.37 /mm2
  Number of macrophages: 271.15
[2]; [11]
  M1 macrophage ratio: 0.094
  M2 macrophage ratio: 0.143
  Number of M1 macropages/mm2: 25.54 /mm2
  Number of M2 macrophages/mm2: 28.29 /mm2
  Number of macrophages: 254.39
[2]; [12]
  M1 macrophage ratio: 0.090
  M2 macropahge ratio: 0.039
  Number of M1 macrophages/mm2: 29.78 /mm2
  Number of M2 macrophages/mm2: 12.86 /mm 2
  Number of macrophages: 320.22
[2]; [13]
  M1 macrophage ratio: 0.132
  M2 macropahge ratio: 0.032
  Number of M2 macrophages/mm2: 10.33 /mm 2
  Number of macrophages: 342.11
[2]; Table 18 (FIG. 18; day not given), 1 mm on the tail side (last position column)
  Number of M1 macrophages/mm2: 24.68 /mm2
[2]; Table 18 (FIG. 18; day not given), 1 mm on the tail side (third position column)
  Number of M1 macrophages/mm2: 44.79 /mm2
[2]; [14]
  M1 macrophage ratio: 0.089
  M2 macropahge ratio: 0.032
  Number of M1 macrophages/mm2: 20.16 /mm2
  Number of M2 macrophages/mm2: 7.65 /mm 2
  Number of macrophages: 230.75
[2]; [15]
  M1 macrophage ratio: 0.095
  M2 macropahge ratio: 0.032
  Number of M2 macrophages/mm2: 7.42 /mm 2
  Number of macrophages: 246.52
